system: HCV replicon; assay: HCV replicon replication assay (NPT ELISA) in Huh-7 replicon-containing cells; type: cell-based; details: Hepatitis C virus, 72 h; HCV replicon in Huh-7 cells, three days incubation; read-out: EC50
Procedure, shortened: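 Replication was scored by capture ELISA of neomycin phosphotransferase, whose level tracks replicon replication, after graded compound treatment. The cells were Huh-7 harbouring an HCV-IRES/neo/EMCV-IRES/NS3–NS5B/3′-NTR replicon, plated at 6000-7500 cells/well and dosed 24 h later at 60-70% confluence; interferon alpha was the positive control.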

SMILES | EC50
C=C[C@@H]1C[C@]1(NC(=O)[C@@H]1C[C@@H](Oc2cc(-c3ccccc3)nc3cc(OC)ccc23)CN1C(=O)[C@@H](CC(=O)N1CCC2(CC1)OCCO2)C(C)(C)C)C(=O)NS(=O)(=O)C1CC1 [Compound 75, (2S,4R)-1-((2S)-2-tert-butyl-4-oxo-4-(1,4-dioxa-8-azaspiro[4.5]decan-8-yl)butanoyl)-N-((1R,2S)-1-(cyclopropylsulfonyl-carbamoyl)-2-vinylcyclopropyl)-4-(7-methoxy-2-phenylquinolin-4-yloxy)pyrrolidine-2-carboxamide] | < 1000 nM
C=C[C@@H]1C[C@]1(NC(=O)[C@@H]1C[C@@H](Oc2cc(-c3ccccc3)nc3cc(OC)ccc23)CN1C(=O)[C@@H](CC(=O)N1CCC(CNC(=O)OC(C)(C)C)CC1)C(C)(C)C)C(=O)NS(=O)(=O)C1CC1 [Compound 76, tert-butyl (1-((S)-3-((2S,4R)-2-((1R,2S)-1-(cyclopropylsulfonyl-carbamoyl)-2-vinylcyclopropyl-carbamoyl)-4-(7-methoxy-2-phenylquinolin-4-yloxy)pyrrolidine-1-carbonyl)-4,4-dimethylpentano-yl)piperidin-4-yl)methylcarbamate] | < 1000 nM
C=C[C@@H]1C[C@]1(NC(=O)[C@@H]1C[C@@H](Oc2cc(-c3ccccc3)nc3cc(OC)ccc23)CN1C(=O)[C@@H](CC(=O)N1CCCCCC1)C(C)(C)C)C(=O)NS(=O)(=O)C1CC1 [Compound 77, (2S,4R)-1-((S)-4-(azepan-1-yl)-2-tert-butyl-4-oxobutanoyl)-N-((1R,2S)-1-(cyclopropyl-sulfonylcarbamoyl)-2-vinylcyclopropyl)-4-(7-methoxy-2-phenylquinolin-4-yloxy)pyrrolidine-2-carboxamide] | < 1000 nM
C=C[C@@H]1C[C@]1(NC(=O)[C@@H]1C[C@@H](Oc2cc(-c3ccccc3)nc3cc(OC)ccc23)CN1C(=O)[C@@H](CC(=O)N1CCC(C(=O)NC)CC1)C(C)(C)C)C(=O)NS(=O)(=O)C1CC1 [Compound 78] | < 1000 nM
C=C[C@@H]1C[C@]1(NC(=O)[C@@H]1C[C@@H](Oc2cc(-c3ccccc3)nc3cc(OC)ccc23)CN1C(=O)[C@@H](CC(=O)N1CC2CCC1C2)C(C)(C)C)C(=O)NS(=O)(=O)C1CC1 (stereo partly drawn) [Compound 79, (2S,4R)-1-((2S)-2-(2-(2-azabi-cyclo[2.2.1]heptan-2-yl)-2-oxoethyl)-3,3-dimethylbutanoyl)-N-((1R,2S)-1-(cyclopropyl-sulfonylcarbamoyl)-2-vinylcyclopropyl)-4-(7-methoxy-2-phenylquinolin-4-yloxy)pyrrolidine-2-carboxamide] | < 1000 nM
C=C[C@@H]1C[C@]1(NC(=O)[C@@H]1C[C@@H](Oc2cc(-c3ccccc3)nc3cc(OC)ccc23)CN1C(=O)[C@@H](CC(=O)N1CCC(C(F)(F)F)CC1)C(C)(C)C)C(=O)NS(=O)(=O)C1CC1 [Compound 80, (2S,4R)-1-((S)-2-tert-butyl-4-oxo-4-(4-(trifluoro-methyl)piperidin-1-yl)butanoyl)-N-((1R,2S)-1-(cyclopropyl-sulfonylcarbamoyl)-2-vinylcyclopropyl)-4-(7-methoxy-2-phenylquinolin-4-yloxy)pyrrolidine-2-carboxamide] | < 1000 nM
C=C[C@@H]1C[C@]1(NC(=O)[C@@H]1C[C@@H](Oc2cc(-c3ccccc3)nc3cc(OC)ccc23)CN1C(=O)[C@@H](CC(=O)N1CC2CC3CC(C2)CC1C3)C(C)(C)C)C(=O)NS(=O)(=O)C1CC1 [Compound 81] | < 1000 nM
C=C[C@@H]1C[C@]1(NC(=O)[C@@H]1C[C@@H](Oc2cc(-c3ccccc3)nc3cc(OC)ccc23)CN1C(=O)[C@@H](CC(=O)N1CCC(F)CC1)C(C)(C)C)C(=O)NS(=O)(=O)C1CC1 [Compound 82, (2S,4R)-1-((S)-2-tert-butyl-4-(4-fluoropiperidin-1-yl)-4-oxobutanoyl)-N-((1R,2S)-1-(cyclopropyl-sulfonylcarbamoyl)-2-vinylcyclopropyl)-4-(7-methoxy-2-phenylquinolin-4-yloxy)pyrrolidine-2-carboxamide] | < 1000 nM
